Data published in US9481885B2, “Methods and compositions related to miR-21 and miR-29a, exosome inhibition, and cancer metastasis” (Ohio State Innovation Foundation, priority 2011, dated 2016).

Target: T1, human TLR7 (Homo sapiens, UniProt Q9NYK1)
T1 construct: host or cells: HEK-Blue TLR7 293 (TLR7-HEK-293)
T1 sequence (Q9NYK1 27-1049): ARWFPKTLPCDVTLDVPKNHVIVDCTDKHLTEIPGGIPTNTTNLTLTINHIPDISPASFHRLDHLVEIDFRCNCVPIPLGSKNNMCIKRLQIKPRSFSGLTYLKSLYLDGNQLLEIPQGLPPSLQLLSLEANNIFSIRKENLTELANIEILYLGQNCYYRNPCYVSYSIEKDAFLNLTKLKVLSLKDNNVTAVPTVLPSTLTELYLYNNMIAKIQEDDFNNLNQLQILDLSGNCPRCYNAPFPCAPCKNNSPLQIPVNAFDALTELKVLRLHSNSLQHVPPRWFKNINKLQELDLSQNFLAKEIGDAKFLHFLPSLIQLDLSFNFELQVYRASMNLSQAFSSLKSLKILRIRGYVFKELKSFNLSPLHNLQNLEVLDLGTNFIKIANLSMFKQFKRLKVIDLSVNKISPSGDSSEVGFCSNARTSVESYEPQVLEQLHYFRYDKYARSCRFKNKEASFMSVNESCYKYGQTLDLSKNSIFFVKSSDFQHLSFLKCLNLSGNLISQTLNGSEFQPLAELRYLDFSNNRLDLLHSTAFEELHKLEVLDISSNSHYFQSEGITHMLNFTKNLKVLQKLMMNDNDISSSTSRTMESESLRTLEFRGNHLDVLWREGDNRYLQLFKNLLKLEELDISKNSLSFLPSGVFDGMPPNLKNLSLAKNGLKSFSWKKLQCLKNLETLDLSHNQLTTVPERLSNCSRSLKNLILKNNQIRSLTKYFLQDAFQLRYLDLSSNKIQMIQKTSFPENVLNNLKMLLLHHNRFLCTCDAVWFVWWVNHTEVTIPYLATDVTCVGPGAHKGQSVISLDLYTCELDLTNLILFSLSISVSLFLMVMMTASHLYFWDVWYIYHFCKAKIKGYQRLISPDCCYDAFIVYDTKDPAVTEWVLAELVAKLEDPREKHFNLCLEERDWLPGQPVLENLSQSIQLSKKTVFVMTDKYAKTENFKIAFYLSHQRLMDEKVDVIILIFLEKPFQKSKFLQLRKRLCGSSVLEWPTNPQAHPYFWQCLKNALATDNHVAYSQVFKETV
Assay: NF-κB reporter assay (QUANTI-Blue) in TLR7-HEK-293 cells
Assay type: cell-based
Conditions: Dotap formulations of miRNA
Experimental: To investigate whether miRNA-induced activation of TLRs also occurs in human cells, an NF-κB reporter assay was performed in HEK-293 cells. NF-κB, a transcription factor modulating the expression of several cytokine genes, is activated by several TLRs, including the only ssRNA-binding human TLRs, TLR7 and TLR8. Therefore, we treated HEK-293 cells expressing human TLR7 or TLR8 (hereafter, TLR7- and TLR8-HEK-293 cells, respectively) with Dotap alone or with Dotap formulations of miR-16, -21, -29a, or -147 and performed an NF-κB reporter assay. As positive controls Gardiquimod and ssRNA40 were used, specific agonists of TLR7 and TLR8, respectively. […] To confirm this conclusion, transfected were TLR8-HEK-293 cells with a plasmid encoding a dominant negative form of TLR8 (TLR8DN) and treated these cells with the miRNAs of interest. In TLR8DN cells, the activation of NF-κB by miR-21 and miR-29a was abolished (FIG. 3F). […] NF-κB activity was assessed by QUANTI-Blue Assay (Invivogen). […] Levels of SEAP can be easily determined with QUANTI-Blue, a detection medium that turns purple/blue in the presence of alkaline phosphatase. […] The plate was then incubated at 37° C. for 1-3 h and SEAP levels were determined by reading the plate with a spectrophotometer at 620-655 nm (SpectraMax, Molecular Devices).

With “miR-147: synthetic mature miRNA (SEQ ID NO: 3), sequence similar to RNA33, Dotap formulation (GUGUGUGGAAAUGCUUCUGC; DOTAP formulation, further chemistry not given here)” the NF-κB activation was “only in TLR8-HEK-293 cells”.
